The source of these data is ChEMBL document CHEMBL1134866, “Design, synthesis, and biological evaluation of novel, centrally-acting thyrotropin-releasing hormone analogues” (2002).

For the assay, the system named is Mus musculus. Kind of assay: Compound was intravenously injected into Swiss Webstar mice tail vein, the sleeping time was recorded as the time elapsed from the loss of righting reflex. The assay is classed as functional.
`NC(=O)C1=CN(CCC[C@H](NC(=O)[C@@H]2CCC(=O)N2)C(=O)N2CCC[C@H]2C(N)=O)C=CC1`: the Sleeping time is around 59 min.

Regarding `NC(=O)C1=CN(C[C@H](NC(=O)[C@@H]2CCC(=O)N2)C(=O)N2CCC[C@H]2C(N)=O)C=CC1`, the Sleeping time is reported as 19.3 min.

Regarding `NC(=O)C1=CN(CCC(NC(=O)[C@@H]2CCC(=O)N2)C(=O)N2CCC[C@H]2C(N)=O)C=CC1` (some centres undefined), the Sleeping time was around 45 min. Molecule `NC(=O)C1=CN(CCCCC(NC(=O)[C@@H]2CCC(=O)N2)C(=O)N2CCC[C@H]2C(N)=O)C=CC1` (some centres undefined) returned a Sleeping time of around 47 min.
